This is an account of results in patent US11667649B2, “Heteroaromatic macrocyclic ether chemotherapeutic agents” (Nuvalent, Inc., priority 2020, dated 2023).

This test deals with TPM3-NTRK1-wt IC50 / primary target (e.g. CD74-ROS1-wt) IC50, Ba/F3 cells. The experiment in a line: Cell assay TRKA selectivity (TRKA potency divided by primary target potency). The format is cell-based. Conditions: for TPM3-NTRK1-wt/CD74-ROS1-G2032R: TRKA selectivity ratio: TPM3-NTRK1-wt IC50 / CD74-ROS1-G2032R IC50, Ba/F3 cells; for TPM3-NTRK1-wt/CD74-ROS1-wt: TRKA selectivity ratio: TPM3-NTRK1-wt IC50 / CD74-ROS1-wt IC50, Ba/F3 cells; for TPM3-NTRK1-wt/EML4-ALK-L1196M-G1202R: TRKA selectivity ratio: TPM3-NTRK1-wt IC50 / EML4-ALK-L1196M-G1202R IC50, Ba/F3 cells; for TPM3-NTRK1-wt/EML4-ALK-wt: TRKA selectivity ratio: TPM3-NTRK1-wt IC50 / EML4-ALK-wt IC50, Ba/F3 cells. From the text: Genes encoding CD74-ROS1 wild-type (wt), CD74-ROS1 G2032R, CD74-ROS1 S1986F, CD74-ROS1 L2026M, CD74-ROS1 D2033N, EML4-ALK wt (variant 1), EML4-ALK G1202R (variant 1), EML4-ALK L1196M/G1202R (variant 1), EML4-ALK G1202R/G1269A (variant 1), EML4-ALK G1202R/L1198F (variant 1), and TPM3-TRKA were synthesized at GeneRay, cloned into the retroviral construct pMSCV-puro (Biovector), and packaged into retroviral particles. The virus was used to infect Ba/F3 cells (RIKEN) at multiplicity of infection=1 for 1 day. Infected cells were rescued in media (RPMI-1640 with 10% fetal bovine serum and 1% streptomycin and penicillin) supplemented with mouse IL-3 (10 ng/mL) for 2 days, and stable cell lines were selected by IL-3 withdrawal and puromycin (0.8 μg/mL) for 7 days. Monoclones were selected by single-cell dilution in IL-3-free medium containing puromycin (0.8 μg/mL). Transformation of desired genes was confirmed by Sanger sequencing and western blot using the following antibodies: ROS1 (CST #3287), ALK (CST #3633), and pan-TRK (Abcam #76291).
Stable cells were plated at 1,000 cells/well (40 μL) in a 384-well plate for 1 day. Test compounds (40 nL) were then added in a 3-fold dilution series using the TECAN EVO200 liquid handler and incubated for 72 hours. Plates were equilibrated at room temperature for 15 minutes followed by addition of 40 μL CellTiter-Glo reagent (Promega). Luminescence was measured on a plate reader. Half-maximal inhibitory concentration (IC50) was calculated from percent inhibition and inhibitor concentration using four-parameter logistic regression. […] Exemplary data is given in Table 4 (nd is not determined).
TRKA selectivity was calculated by dividing a compound's TRKA potency by its primary target potency (e.g. TPM3-NTRK1-wt IC50/CD74-ROS1-wt IC50). Compound selectivity can be interpreted by binning ratio values: bin A for very high selectivity, ratio>30-fold; bin B for high selectivity, ratio>10-fold; bin C for moderate selectivity, ratio≥1; and bin D for low selectivity, ratio<1. […] (nd=not determined).

As to `CCn1ncc2c1-c1cnc(N)c(c1)O[C@H](C)c1cc(F)ccc1-c1nn(C)cc1C2` [Example 1, (19R)-3-ethyl-16-fluoro-10,19-dimethyl-20-oxa-3,4,10,11,23-pentaazapentacyclo[19.3.1.0^2,^60^8,^12.0^13,^18]pentacosa-1(24),2(6),4,8,11,13,15,17,21(25),22-decaen-22-amine], the TPM3-NTRK1-wt/CD74-ROS1-G2032R entry was “A (bin A for very high selectivity, ratio>30-fold)”; the TPM3-NTRK1-wt/CD74-ROS1-wt entry is “A (bin A for very high selectivity, ratio>30-fold)”; the TPM3-NTRK1-wt/EML4-ALK-L1196M-G1202R result is “A (bin A for very high selectivity, ratio>30-fold)”; the TPM3-NTRK1-wt/EML4-ALK-wt result is on record as “A (bin A for very high selectivity, ratio>30-fold)”.

For the compound `CC1Oc2cc(cnc2N)-c2c(cnn2C)Cc2cnn(C)c2-c2ccc(F)cc21` (stereo not drawn) [Example 2, 16-fluoro-3,11,19-trimethyl-20-oxa-3,4,10,11,23-pentaazapentacyclo[19.3.1.0^2,^6.0^8,^12.0^13,^18]pentacosa-1(24),2(6),4,8(12),9,13,15,17,21(25),22-decaen-22-amine], the TPM3-NTRK1-wt/CD74-ROS1-G2032R result was “B (bin B for high selectivity, ratio>10-fold)”; the TPM3-NTRK1-wt/CD74-ROS1-wt entry is “A (bin A for very high selectivity, ratio>30-fold)”; the TPM3-NTRK1-wt/EML4-ALK-L1196M-G1202R entry is on record as “D (bin D for low selectivity, ratio<1)”; the TPM3-NTRK1-wt/EML4-ALK-wt entry was “B (bin B for high selectivity, ratio>10-fold)”.

For the compound `CCn1ncc2c1-c1cnc(N)c(c1)O[C@H](C)c1cc(F)ccc1-c1ncccc1C2` [Example 3, (20R)-3-ethyl-17-fluoro-20-methyl-21-oxa-3,4,12,24-tetraazapentacyclo[20.3.1.0^2,^6.0^8,^13.0^14,^19]hexacosa-1(25),2(6),4,8(13),9,11,14,16,18,22(26),23-undecaen-23-amine], the TPM3-NTRK1-wt/CD74-ROS1-G2032R result is recorded as “A (bin A for very high selectivity, ratio>30-fold)”; the TPM3-NTRK1-wt/EML4-ALK-L1196M-G1202R result was “B (bin B for high selectivity, ratio>10-fold)”; the TPM3-NTRK1-wt/EML4-ALK-wt result is “A (bin A for very high selectivity, ratio>30-fold)”.

In the case of `CCn1ncc2c1-c1ccc(F)cc1[C@@H](C)Oc1cc(cnc1N)-c1c(cnn1C)C2` [Example 4, (19R)-11-ethyl-16-fluoro-3,19-dimethyl-20-oxa-3,4,10,11,23-pentaazapentacyclo[19.3.1.0^2,^6.0^8,^12.0^13,^18]pentacosa-1(24),2(6),4,8(12),9,13,15,17,21(25),22-decaen-22-amine], the TPM3-NTRK1-wt/CD74-ROS1-G2032R entry is listed as “B (bin B for high selectivity, ratio>10-fold)”; the TPM3-NTRK1-wt/CD74-ROS1-wt result is “A (bin A for very high selectivity, ratio>30-fold)”; the TPM3-NTRK1-wt/EML4-ALK-L1196M-G1202R result is given as “D (bin D for low selectivity, ratio<1)”; the TPM3-NTRK1-wt/EML4-ALK-wt entry was “C (bin C for moderate selectivity, ratio≥1)”.

Consider `C[C@H]1Oc2cc(cnc2N)-c2c(cnn2C2CCC2)Cc2cnn(C)c2-c2ccc(F)cc21` [Example 5, (19R)-3-cyclobutyl-16-fluoro-11,19-dimethyl-20-oxa-3,4,10,11,23-pentaazapentacyclo[19.3.1.0^2,^6.0^8,^12.0^13,^18]pentacosa-1(24),2(6),4,8(12),9,13,15,17,21(25),22-decaen-22-amine], for which the TPM3-NTRK1-wt/CD74-ROS1-G2032R result is recorded as “A (bin A for very high selectivity, ratio>30-fold)”; the TPM3-NTRK1-wt/CD74-ROS1-wt result is recorded as “A (bin A for very high selectivity, ratio>30-fold)”; the TPM3-NTRK1-wt/EML4-ALK-L1196M-G1202R entry was “A (bin A for very high selectivity, ratio>30-fold)”; the TPM3-NTRK1-wt/EML4-ALK-wt entry is reported as “A (bin A for very high selectivity, ratio>30-fold)”.

In the case of `CCc1c(C#N)nn2c1-c1cnc(N)c(c1)O[C@H](C)c1cc(F)ccc1-c1nn(C)cc1C2` [Example 6, (19R)-22-amino-3-ethyl-16-fluoro-10,19-dimethyl-20-oxa-5,6,10,11,23-pentaazapentacyclo[19.3.1.0^2,^6.0^8,^12.0^13,^18]pentacosa-1(24),2,4,8,11,13,15,17,21(25),22-decaene-4-carbonitrile], the TPM3-NTRK1-wt/CD74-ROS1-G2032R entry was “A (bin A for very high selectivity, ratio>30-fold)”; the TPM3-NTRK1-wt/CD74-ROS1-wt entry is on record as “A (bin A for very high selectivity, ratio>30-fold)”; the TPM3-NTRK1-wt/EML4-ALK-L1196M-G1202R result is given as “C (bin C for moderate selectivity, ratio≥1)”; the TPM3-NTRK1-wt/EML4-ALK-wt entry is “A (bin A for very high selectivity, ratio>30-fold)”.

On to `Cn1cc2c(n1)-c1ccc(F)cc1COc1cc(cnc1N)-c1c(cnn1C1CCC1)C2` [Example 7, 3-cyclobutyl-16-fluoro-10-methyl-20-oxa-3,4,10,11,23-pentaazapentacyclo[19.3.1.0^2,^6.0^8,^12.0^13,^18]pentacosa-1(24),2(6),4,8,11,13,15,17,21(25),22-decaen-22-amine], for which the TPM3-NTRK1-wt/CD74-ROS1-G2032R entry is on record as “A (bin A for very high selectivity, ratio>30-fold)” and the TPM3-NTRK1-wt/EML4-ALK-L1196M-G1202R result is reported as “A (bin A for very high selectivity, ratio>30-fold)”.

With `CCn1ncc2c1-c1cnc(N)c(c1)OCc1cc(F)ccc1-c1ncccc1C2` [Example 8, 3-ethyl-17-fluoro-21-oxa-3,4,12,24-tetraazapentacyclo[20.3.1.0^2,^6.0^8,^13.0^14,^19]hexacosa-1(25),2(6),4,8(13),9,11,14,16,18,22(26),23-undecaen-23-amine], the TPM3-NTRK1-wt/CD74-ROS1-G2032R entry was “A (bin A for very high selectivity, ratio>30-fold)”; the TPM3-NTRK1-wt/CD74-ROS1-wt result was “A (bin A for very high selectivity, ratio>30-fold)”; the TPM3-NTRK1-wt/EML4-ALK-L1196M-G1202R result is recorded as “B (bin B for high selectivity, ratio>10-fold)”; the TPM3-NTRK1-wt/EML4-ALK-wt result is listed as “A (bin A for very high selectivity, ratio>30-fold)”.

For `C[C@H]1Oc2cc(cnc2N)-c2c(C#N)cnn2Cc2cn(C)nc2-c2ccc(F)cc21` [Example 9, (19R)-22-amino-16-fluoro-10,19-dimethyl-20-oxa-5,6,10,11,23-pentaazapentacyclo[19.3.1.0^2,^6.0^8,^12.0^13,^18]pentacosa-1(24),2,4,8,11,13,15,17,21(25),22-decaene-3-carbonitrile], the TPM3-NTRK1-wt/CD74-ROS1-G2032R result is recorded as “B (bin B for high selectivity, ratio>10-fold)”; the TPM3-NTRK1-wt/CD74-ROS1-wt result is “A (bin A for very high selectivity, ratio>30-fold)”; the TPM3-NTRK1-wt/EML4-ALK-L1196M-G1202R result is on record as “C (bin C for moderate selectivity, ratio≥1)”; the TPM3-NTRK1-wt/EML4-ALK-wt result was “A (bin A for very high selectivity, ratio>30-fold)”.

Take `C[C@H]1Oc2cc(cnc2N)-c2c(C#N)ncn2Cc2cnccc2-c2ccc(F)cc21` [Example 10, (20R)-23-amino-17-fluoro-20-methyl-21-oxa-4,6,10,24-tetraazapentacyclo[20.3.1.0^2,^6.0^8,^13.0^14,^19]hexacosa-1(25),2,4,8(13),9,11,14,16,18,22(26),23-undecaene-3-carbonitrile]: the TPM3-NTRK1-wt/CD74-ROS1-G2032R result was “A (bin A for very high selectivity, ratio>30-fold)”; the TPM3-NTRK1-wt/CD74-ROS1-wt entry is listed as “D (bin D for low selectivity, ratio<1)”; the TPM3-NTRK1-wt/EML4-ALK-L1196M-G1202R entry is on record as “C (bin C for moderate selectivity, ratio≥1)”; the TPM3-NTRK1-wt/EML4-ALK-wt entry is recorded as “A (bin A for very high selectivity, ratio>30-fold)”.

With `C[C@H]1Oc2cc(cnc2N)-c2c(C#N)ncn2Cc2ccncc2-c2ccc(F)cc21` [Example 11, (20R)-23-amino-17-fluoro-20-methyl-21-oxa-4,6,11,24-tetraazapentacyclo[20.3.1.0^2,^6.0^8,^13.0^14,^19]hexacosa-1(25),2,4,8(13),9,11,14,16,18,22(26),23-undecaene-3-carbonitrile], the TPM3-NTRK1-wt/CD74-ROS1-G2032R entry is reported as “A (bin A for very high selectivity, ratio>30-fold)”; the TPM3-NTRK1-wt/CD74-ROS1-wt entry is listed as “A (bin A for very high selectivity, ratio>30-fold)”; the TPM3-NTRK1-wt/EML4-ALK-L1196M-G1202R result is “C (bin C for moderate selectivity, ratio≥1)”; the TPM3-NTRK1-wt/EML4-ALK-wt result is “A (bin A for very high selectivity, ratio>30-fold)”.

As to `C[C@H]1Oc2cc(cnc2N)-c2c(C#N)ncn2Cc2cccnc2-c2ccc(F)cc21` [Example 12, (20R)-23-amino-17-fluoro-20-methyl-21-oxa-4,6,12,24-tetraazapentacyclo[20.3.1.0^2,^6.0^8,^13.0^14,^19]hexacosa-1(25),2,4,8(13),9,11,14,16,18,22(26),23-undecaene-3-carbonitrile], the TPM3-NTRK1-wt/CD74-ROS1-G2032R result is listed as “A (bin A for very high selectivity, ratio>30-fold)”; the TPM3-NTRK1-wt/CD74-ROS1-wt result is recorded as “A (bin A for very high selectivity, ratio>30-fold)”; the TPM3-NTRK1-wt/EML4-ALK-L1196M-G1202R result is “A (bin A for very high selectivity, ratio>30-fold)”; the TPM3-NTRK1-wt/EML4-ALK-wt entry is “A (bin A for very high selectivity, ratio>30-fold)”.
